Assay [1] has as its target α9/α10 nicotinic acetylcholine receptors (Rattus norvegicus, UniProt P43144+Q9JLB5). Particulars: Plazas, et al., Eur J Pharmacol., 2007; cited from earlier work.
A further assay deals with patients having tinnitus. In words: 24-week placebo controlled, randomized, double-blind comparative trial, TRSw score. Type of assay: in vivo, human. Also on record: key to Change in TRSw score: LS mean change in TRSw score from week 0 to week 24; <0 = better. Particulars: for Change in TRSw score, Neramexane-placebo / Change in TRSw score: 24 weeks; for Change in TRSw score: 50 mg/day. An excerpt: A therapeutic effect can be evaluated by physician inquiry using a questionnaire form such as TRSw (Tinnitus Rating Scale One-Week Version) (Acta Otolaryngol., 2013, 133(5), 491-498).
The efficacy of neramexane mesylate on patients with tinnitus associated with age-related hearing loss, tinnitus associated with auditory disorder in the range of the human voice at an auditory threshold value exceeding 25 dB, tinnitus that includes two or more different tinnitus sounds or tinnitus that includes a tinnitus sound that is not high-frequency alone, was evaluated in a 24-week, placebo controlled, randomized, double-blind comparative trial.
The film coated tablets containing 12.5 mg neramexane mesylate or placebo tablets were administered for 24 weeks to patients having tinnitus. The dosage was started from 12.5 mg/day, gradually increasing the dose to 50 mg/day over 4 weeks, and maintaining the same dose thereafter.
The therapeutic effect of neramexane mesylate for the patients was evaluated using the TRSw score. Statistical analysis was performed using a mixed-effect model repeated measure (MMRM) taking into consideration the covariance structure of error for the patient, with the change in TRSw score from before administration of neramexane mesylate tablets or placebo tablets (0 weeks) to each evaluation time point as the response variable, and with the drug-administered group, evaluation time point, interaction between drug-administered group and evaluation time point, 0-week TRSw score, gender and body weight as […]. The numerical values in the table represent least mean squares for the change in TRSw score at 24 weeks after administration. A change in score of less than 0 indicates a higher therapeutic effect.

The next assay has as its target T1, 5-HT3 receptors (Homo sapiens, UniProt P46098).
T1 sequence (P46098 24-478): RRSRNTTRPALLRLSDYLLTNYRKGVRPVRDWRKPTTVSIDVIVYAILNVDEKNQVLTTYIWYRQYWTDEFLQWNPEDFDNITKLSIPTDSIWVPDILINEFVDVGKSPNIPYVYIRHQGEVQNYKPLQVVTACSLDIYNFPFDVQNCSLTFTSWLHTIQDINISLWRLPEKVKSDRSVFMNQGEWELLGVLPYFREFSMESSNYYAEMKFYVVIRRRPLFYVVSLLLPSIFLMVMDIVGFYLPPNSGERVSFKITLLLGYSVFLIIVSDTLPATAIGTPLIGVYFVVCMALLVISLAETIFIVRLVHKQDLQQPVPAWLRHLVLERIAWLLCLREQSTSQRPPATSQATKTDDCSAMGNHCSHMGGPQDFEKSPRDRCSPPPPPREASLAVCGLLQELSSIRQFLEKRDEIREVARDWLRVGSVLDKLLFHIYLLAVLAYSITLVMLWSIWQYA
The settings on record: cited from earlier work.

The mark [2] stands for this setting: Tinnitus associated with age-related hearing loss at hearing threshold of 25 dB or more in both ears in 4000 Hz and 8000 Hz.
Where [3] appears, read: Tinnitus associated with age-related hearing loss at hearing threshold of 25 dB or more in both ears in 8000 Hz.
Setting [4] is: Tinnitus associated with age-related hearing loss, exhibiting auditory disorder (>25 dB) in the range of the human voice.
Setting [5] is: Tinnitus associated with auditory disorder (>25 dB) in the range of the human voice.
The mark [6] stands for this setting: Tinnitus including tinnitus sound not of high-frequency alone.
Where [7] appears, read: Tinnitus including two or more different tinnitus sounds, associated with age-related hearing loss, exhibiting auditory disorder (>25 dB) in the range of the human voice.
Where [8] appears, read: Tinnitus including two or more different tinnitus sounds, associated with age-related hearing loss.
[9] abbreviates: Tinnitus including two or more different tinnitus sounds.

Chain of α9/α10 nicotinic acetylcholine receptors (P43144 26-479): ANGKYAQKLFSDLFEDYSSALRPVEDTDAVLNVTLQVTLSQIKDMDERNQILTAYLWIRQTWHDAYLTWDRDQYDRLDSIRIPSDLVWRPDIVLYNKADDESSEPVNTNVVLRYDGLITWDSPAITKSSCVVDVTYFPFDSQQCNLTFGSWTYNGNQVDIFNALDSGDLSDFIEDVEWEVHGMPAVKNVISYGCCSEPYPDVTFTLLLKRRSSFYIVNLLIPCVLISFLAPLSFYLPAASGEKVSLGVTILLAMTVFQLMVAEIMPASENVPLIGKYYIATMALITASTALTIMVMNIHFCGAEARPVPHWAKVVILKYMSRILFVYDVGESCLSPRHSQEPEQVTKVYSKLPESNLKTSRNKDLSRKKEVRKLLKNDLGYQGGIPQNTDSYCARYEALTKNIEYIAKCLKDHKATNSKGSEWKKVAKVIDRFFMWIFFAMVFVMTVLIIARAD
Chain of α9/α10 nicotinic acetylcholine receptors (Q9JLB5 25-447): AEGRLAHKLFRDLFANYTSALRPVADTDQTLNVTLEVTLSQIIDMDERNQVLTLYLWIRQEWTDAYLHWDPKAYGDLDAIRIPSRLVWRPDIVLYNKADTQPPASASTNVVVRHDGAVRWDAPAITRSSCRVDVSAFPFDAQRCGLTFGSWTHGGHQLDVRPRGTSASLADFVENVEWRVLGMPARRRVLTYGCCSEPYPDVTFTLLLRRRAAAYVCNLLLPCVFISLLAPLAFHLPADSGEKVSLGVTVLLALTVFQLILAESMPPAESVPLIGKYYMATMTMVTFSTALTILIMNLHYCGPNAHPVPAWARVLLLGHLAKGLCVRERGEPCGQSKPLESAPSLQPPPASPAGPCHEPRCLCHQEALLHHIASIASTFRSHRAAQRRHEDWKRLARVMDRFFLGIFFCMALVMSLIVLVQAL

Turning to `CC1(C)CC(C)(C)CC(C)(N)C1` [Neramexane, 1-amino-1,3,3,5,5-pentamethylcyclohexane], the “inhibiting activity on α9/α10 nicotinic acetylcholine receptors” value in assay [1] is “exhibits inhibiting activity”. Besides, the “Change in TRSw score, Neramexane-placebo” value is on record as −2.0 in the assay with patients having tinnitus (setting [2]); −1.5 with patients having tinnitus (setting [3]); −2.0 in the assay with patients having tinnitus (setting [4]); −0.5 in the assay on patients having tinnitus (Tinnitus associated with age-related hearing loss); −0.6 with patients having tinnitus (setting [5]); −0.7 in the assay with patients having tinnitus (setting [6]). The “Change in TRSw score, Neramexane-placebo” value is on record as −4.7 with patients having tinnitus (setting [7]), −2.7 in the assay on patients having tinnitus (setting [8]) and −0.5 in the assay on patients having tinnitus (setting [9]). Besides, the “Change in TRSw score” value in the assay with patients having tinnitus (setting [2]) was −2.5; in the assay on patients having tinnitus (setting [3]) it was −2.2; with patients having tinnitus (setting [4]), −3.6; in the assay with patients having tinnitus (Tinnitus associated with age-related hearing loss, least mean squares), −2.5; in the assay with patients having tinnitus (setting [5]), −1.7; in the assay with patients having tinnitus (setting [6]) it was −2.0. In addition, the “Change in TRSw score” value is on record as −5.0 in the assay on patients having tinnitus (setting [7]), −4.1 with patients having tinnitus (setting [8]) and −2.2 with patients having tinnitus (setting [9]). The “therapeutic effect compared to placebo” value was “unexpectedly excellent therapeutic effect” in the assay with patients having tinnitus (combined groups: age-related hearing loss with auditory disorder >25 dB, two or more sounds with age-related hearing loss, all three criteria) and “superior therapeutic effect” in the assay with patients having tinnitus (single-criterion groups: age-related hearing loss, auditory disorder >25 dB in range of human voice, two or more tinnitus sounds, sound not high-frequency alone). Besides, the “inhibiting activity on 5-HT3 receptors” value at 5-HT3 receptors is “exhibits inhibiting activity”.

Source of the values: patent publication US20170049718A1, “DRUG FOR TREATMENT OF TINNITUS PATIENTS” (KYORIN PHARMACEUTICAL CO., LTD., priority 2014, published 2017).
